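All cell lines were grown in 96-well plates and treated with compound for 48 hours. Abbreviation: GI50, concentration required for 50% inhibition of growth. TGI: concentration producing complete growth inhibition.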
What was measured:
Assay in all cases: NCI-60 cell line screen, 48 h
LOX IMVI melanoma = system: LOX IMVI melanoma
T-47D breast = system: T-47D breast
HOP-92 NSCLC = system: HOP-92 NSCLC
A498 renal = system: A498 renal
SNB-75 CNS = system: SNB-75 CNS
HT29 colon = system: HT29 colon
HCC-2998 colon = system: HCC-2998 colon
OVCAR-3 ovarian = system: OVCAR-3 ovarian
ACHN renal = system: ACHN renal
SF-539 CNS = system: SF-539 CNS
SR leukemia = system: SR leukemia
NCI-H23 lung = system: NCI-H23 lung
CCRF-CEM leukemia = system: CCRF-CEM leukemia
EKVX NSCLC = system: EKVX NSCLC
M14 melanoma = system: M14 melanoma
NCI-H460 lung = system: NCI-H460 lung
NCI-H226 lung = system: NCI-H226 lung
SF-268 CNS = system: SF-268 CNS
KM12 colon = system: KM12 colon
TK-10 renal = system: TK-10 renal
CAKI-1 renal = system: CAKI-1 renal
HOP-62 NSCLC = system: HOP-62 NSCLC
COLO 205 colon = system: COLO 205 colon
OVCAR-5 ovarian = system: OVCAR-5 ovarian
MDA-MB-231 breast = system: MDA-MB-231 breast
HCT-15 colon = system: HCT-15 colon
SK-OV-3 ovarian = system: SK-OV-3 ovarian
MOLT-4 leukemia = system: MOLT-4 leukemia
UO-31 renal = system: UO-31 renal
OVCAR-4 ovarian = system: OVCAR-4 ovarian
U251 CNS = system: U251 CNS
NCI-H522 lung = system: NCI-H522 lung
SNB-19 CNS = system: SNB-19 CNS
DU-145 prostate = system: DU-145 prostate
SN12C renal = system: SN12C renal
HS 578T breast = system: HS 578T breast
RXF 393 renal = system: RXF 393 renal
PC-3 prostate = system: PC-3 prostate
SK-MEL-28 melanoma = system: SK-MEL-28 melanoma
SK-MEL-2 melanoma = system: SK-MEL-2 melanoma
UACC-62 melanoma = system: UACC-62 melanoma
UACC-257 melanoma = system: UACC-257 melanoma
HCT-116 colon = system: HCT-116 colon
IGROV1 ovarian = system: IGROV1 ovarian
MALME-3M melanoma = system: MALME-3M melanoma
A549 NSCLC = system: A549 NSCLC
OVCAR-8 ovarian = system: OVCAR-8 ovarian
SW-620 colon = system: SW-620 colon
MDA-MB-435 = system: MDA-MB-435
786-0 renal = system: 786-0 renal
BT-549 breast = system: BT-549 breast
SF-295 CNS = system: SF-295 CNS
RPMI-8226 leukemia = system: RPMI-8226 leukemia
MCF7 breast = system: MCF7 breast
SK-MEL-5 melanoma = system: SK-MEL-5 melanoma
NCI/ADR-RES ovarian = system: NCI/ADR-RES ovarian
K-562 leukemia = system: K-562 leukemia
HL-60(TB) leukemia = system: HL-60(TB) leukemia

## Cc1cccc2c1[nH]c(=O)c1c3ccccc3cn21
LOX IMVI melanoma
  GI50: 6.22 µM
  TGI: 18.4 µM
T-47D breast
  GI50: 11.5 µM
  TGI: 48.5 µM
HOP-92 NSCLC
  GI50: 3.97 µM
  TGI: 32.2 µM
A498 renal
  GI50: 16.1 µM
  TGI: 42.1 µM
SNB-75 CNS
  GI50: 30.7 µM
  TGI: > 100 µM
HT29 colon
  GI50: 2.16 µM
  TGI: 13.1 µM
HCC-2998 colon
  GI50: 4.6 µM
  TGI: 16.3 µM
OVCAR-3 ovarian
  GI50: 4.78 µM
  TGI: 28.2 µM
ACHN renal
  GI50: 4.08 µM
  TGI: 22.5 µM
SF-539 CNS
  GI50: 3.85 µM
  TGI: 15.8 µM
SR leukemia
  GI50: 1.54 µM
  TGI: 4.15 µM
NCI-H23 lung
  GI50: 17.2 µM
  TGI: 38.6 µM
CCRF-CEM leukemia
  GI50: 1.2 µM
  TGI: 12.6 µM
EKVX NSCLC
  GI50: 5.61 µM
  TGI: 44.6 µM
M14 melanoma
  GI50: 12.4 µM
  TGI: 30.9 µM
NCI-H460 lung
  GI50: 1.89 µM
NCI-H226 lung
  GI50: 3.25 µM
  TGI: 27.6 µM
SF-268 CNS
  GI50: 3.03 µM
  TGI: 8.49 µM
KM12 colon
  GI50: 3.38 µM
  TGI: 22.8 µM
TK-10 renal
  GI50: 26.8 µM
  TGI: 86.2 µM
CAKI-1 renal
  GI50: 2.19 µM
  TGI: 8.75 µM
HOP-62 NSCLC
  GI50: 3.58 µM
  TGI: 15.2 µM
COLO 205 colon
  GI50: 7.33 µM
  TGI: 34.8 µM
OVCAR-5 ovarian
  GI50: 17.9 µM
  TGI: 65.4 µM
MDA-MB-231 breast
  GI50: 2.42 µM
  TGI: 17.5 µM
HCT-15 colon
  GI50: 5.25 µM
  TGI: 31.7 µM
SK-OV-3 ovarian
  GI50: 27.5 µM
  TGI: > 100 µM
MOLT-4 leukemia
  GI50: 1.81 µM
  TGI: 5.56 µM
UO-31 renal
  GI50: 5.66 µM
  TGI: > 100 µM
OVCAR-4 ovarian
  GI50: 6.73 µM
  TGI: > 100 µM
U251 CNS
  GI50: 6.57 µM
  TGI: 19.4 µM
NCI-H522 lung
  GI50: 6.52 µM
  TGI: 64.1 µM
SNB-19 CNS
  GI50: 15.6 µM
  TGI: 48 µM
DU-145 prostate
  GI50: 5.26 µM
  TGI: 17.6 µM
SN12C renal
  GI50: 1.81 µM
  TGI: 18.8 µM
HS 578T breast
  GI50: 21.8 µM
  TGI: 64.4 µM
RXF 393 renal
  GI50: 9.19 µM
  TGI: 38.4 µM
PC-3 prostate
  GI50: 3.9 µM
  TGI: 29.3 µM
SK-MEL-28 melanoma
  GI50: 6.86 µM
  TGI: > 100 µM
SK-MEL-2 melanoma
  GI50: 14.4 µM
  TGI: > 100 µM
UACC-62 melanoma
  GI50: 6.87 µM
  TGI: 28.1 µM
UACC-257 melanoma
  GI50: 16.6 µM
  TGI: 94.4 µM
HCT-116 colon
  GI50: 2.69 µM
  TGI: 11.7 µM
IGROV1 ovarian
  GI50: 3.69 µM
  TGI: > 100 µM
MALME-3M melanoma
  GI50: 8.23 µM
  TGI: 24.7 µM
A549 NSCLC
  GI50: 4.98 µM
  TGI: > 100 µM
OVCAR-8 ovarian
  GI50: 3.57 µM
  TGI: > 100 µM
SW-620 colon
  GI50: 5.76 µM
  TGI: 17.8 µM
MDA-MB-435
  GI50: 3.14 µM
  TGI: 11.6 µM
786-0 renal
  GI50: 5.92 µM
  TGI: 32.2 µM
BT-549 breast
  GI50: 12 µM
  TGI: 59.2 µM
SF-295 CNS
  GI50: 2.64 µM
  TGI: 25.1 µM
RPMI-8226 leukemia
  GI50: 2 µM
  TGI: 7.15 µM
MCF7 breast
  TGI: 12.5 µM
SK-MEL-5 melanoma
  GI50: 11.7 µM
  TGI: 23.9 µM
NCI/ADR-RES ovarian
  GI50: 12.1 µM
  TGI: 34.8 µM

## CC(=O)Oc1ccc2c(-c3ccccc3)c(Oc3ccc(Cl)cc3)c(=O)oc2c1
LOX IMVI melanoma
  TGI: 36.7 µM
T-47D breast
  TGI: 21.2 µM
HOP-92 NSCLC
  TGI: 22.4 µM
A498 renal
  TGI: 30.8 µM
SNB-75 CNS
  TGI: 19.5 µM
HT29 colon
  TGI: 39.8 µM
HCC-2998 colon
  TGI: 19.7 µM
OVCAR-3 ovarian
  TGI: 28.8 µM
ACHN renal
  TGI: 30.5 µM
SF-539 CNS
  TGI: 31.1 µM
SR leukemia
  TGI: 84.4 µM
NCI-H23 lung
  TGI: 44.6 µM
CCRF-CEM leukemia
  TGI: 35.7 µM
EKVX NSCLC
  TGI: 29 µM
M14 melanoma
  TGI: 37 µM
NCI-H460 lung
  TGI: 27.9 µM
NCI-H226 lung
  TGI: 32.5 µM
SF-268 CNS
  TGI: 22.6 µM
KM12 colon
  TGI: 27.5 µM
K-562 leukemia
  TGI: 31.6 µM
TK-10 renal
  TGI: 26.3 µM
CAKI-1 renal
  TGI: 32.3 µM
HOP-62 NSCLC
  TGI: 34.9 µM
OVCAR-5 ovarian
  TGI: 32.4 µM
MDA-MB-231 breast
  TGI: 32.8 µM
HL-60(TB) leukemia
  TGI: > 100 µM
HCT-15 colon
  TGI: 10 µM
MOLT-4 leukemia
  TGI: 34.7 µM
UO-31 renal
  TGI: 28.4 µM
OVCAR-4 ovarian
  TGI: 35.8 µM
U251 CNS
  TGI: 16.3 µM
NCI-H522 lung
  TGI: 9.51 µM
SNB-19 CNS
  TGI: 30 µM
DU-145 prostate
  TGI: 27.4 µM
SN12C renal
  TGI: 39.2 µM
HS 578T breast
  TGI: 43.8 µM
RXF 393 renal
  TGI: 33.2 µM
PC-3 prostate
  TGI: 37.7 µM
SK-MEL-28 melanoma
  TGI: 31.6 µM
UACC-257 melanoma
  TGI: 37.8 µM
HCT-116 colon
  TGI: 28 µM
IGROV1 ovarian
  TGI: 29.4 µM
MALME-3M melanoma
  TGI: 28.9 µM
A549 NSCLC
  TGI: 27.6 µM
OVCAR-8 ovarian
  TGI: 36.8 µM
SW-620 colon
  TGI: 39.4 µM
786-0 renal
  TGI: 30 µM
BT-549 breast
  TGI: 32.9 µM
SF-295 CNS
  TGI: 32.4 µM
RPMI-8226 leukemia
  TGI: > 100 µM
MCF7 breast
  TGI: 39.8 µM
SK-MEL-5 melanoma
  TGI: 32.6 µM

Reference: PubChem BioAssay (NCI)
